Tests used:
[1] = target: T1, PSMA-expressing LS174T cells (LS174T-PSMA) (Homo sapiens, UniProt Q04609); assay: Binding and internalization assay with 111In-labeled ligands; format: cell-based; conditions: 2 h 37 °C
T1 construct: expressed in transfected cells; host or cells: LS174T colon carcinoma cells (human), stably transfected with pcDNA3.1-hPSMA
Experimental: Cell lines were purchased from the American Type Culture Collection. LS174T colon carcinoma cells were stably transfected with human PSMA using the plasmid pcDNA3.1-hPSMA and cultured in RPMI 1640 medium supplemented with 2 mM glutamine, 10% FCS, and 0.3 mg/ml G418 at 37 °C in a humidified atmosphere with 5% CO2 [5].
Binding and internalization characteristics of all ligands were compared using LS174T-PSMA and wildtype LS174T cells. Cells were cultured to confluency in 6-wells plates followed by incubation at 37 °C for 2 h in 1 ml binding buffer (RPMI/0.5% BSA) with 50,000 counts per minute (cpm) of ^111In-labeled ligand (0.1-0.25 pmol/well). Nonspecific binding was determined by coincubation with 2-(phosphonomethyl)pentane-1,5-dioic acid (2-PMPA, 21.57 µM). PSMA-specific binding was defined as nonspecific binding subtracted from total binding. To retrieve the membrane-bound fraction, cells were washed with PBS twice and incubated with acid buffer (0.1 M acetic acid, 154 mM NaCl, pH 2.6) for 10 minutes at 0 °C. After incubation, the membrane bound fraction (in acid buffer) was collected, cells were washed, lysed with 0.1 M NaOH and cell lysis (intercellular activity) was collected. Membrane-bound activity and intercellular activity fractions were measured in a gamma-counter (2480 WIZARD^2 Automatic Gamma Counter, PerkinElmer), [25]. Human serum was used to determine the in vitro serum stability of the multimodal ligands (0.8 µg/ml serum, 5 MBq/μg labeling). After incubation for 2 h at 37°C, serum proteins were precipitated by adding a 1:1 (v/v) volume of acetonitrile followed by 5 min of centrifugation at 3220×g. Stability was evaluated by RP-HPLC analysis after 2 h of incubation at 37 °C. […] Experimental details are described in the supplementary materials and methods.

[2] = tested on: LS174T-PSMA and LS174T xenografts; assay: Biodistribution of 111In-labeled multimodal ligands; format: in vivo, BALB/c nude mice; conditions: 0.3 nmol, 2 h p.i.
Experimental: Animal experiments were performed in 8-10 weeks old male BALB/c nude mice (Janvier). Animals were housed in individually ventilated cages (Blue line IVC, 4-5 mice per cage) under nonsterile standard conditions with cage enrichment present and free access to chlorophyll-free animal chow (Sniff GmbH) and water. Mice were subcutaneously inoculated with 3.0 x 10^6 LS174T-PSMA cells in the left flank and 1.5 × 10^6 LS174T cells in the right flank, diluted in 200 μL of complete RPMI 1640 medium. Eleven days after tumor cell inoculation when xenografts were approximately 0.1 cm^3, tracers were injected intravenously via the tail vein. The researchers were not blinded for the experimental groups and tumor-bearing mice were block-randomized into groups based on tumor size. All experiments were approved by the institutional Animal Welfare Committee of the Radboud university medical center and were conducted in accordance to the guidelines of the Revised Dutch Act on Animal Experimentation.
Mice were injected intravenously with 10 MBq ^111In-labeled PSMA ligands (0.3 nmol, molar activity 33.3 MBq/nmol) in PBS/0.5% BSA. Two hours post injection, mice were euthanized by CO2/O2-asphyxation and images were acquired with the IVIS fluorescence imaging system (Xenogen VivoVision IVIS Lumina II, Caliper Life Sciences), using an acquisition time of 10 s. Subsequently, µSPECT/CT images were acquired (U-SPECT II, MILabs) with a 1.0 mm diameter pinhole mouse collimator tube [26]. Mice were scanned for 30 min followed by a CT scan (spatial resolution 160 μm, 65 kV, 615 μA) for anatomical reference. µSPECT/CT scans were reconstructed with MILabs reconstruction software, using an ordered-subset expectation maximization algorithm, energy windows 154 - 188 keV and 220-270 keV, 3 iterations, 16 subsets, voxel size of 0.4 mm. SPECT/CT scans were analyzed and maximum intensity projections (MIPs) were created using the Inveon Research Workplace software version 4.1 (Siemens Preclinical Solutions). NIRF images were analyzed using Living Image software version 4.2 (Caliper Life Sciences). Tissues of interest were dissected, weighed and measured for radioactivity in a gamma-counter as described above. In the fluorescence-guided surgery feasibility study, pre-operative imaging was performed to visualize tumor tissue. After white light resection, NIRF imaging was repeated to assess if any remaining tumor was present.

[3] = Lipophilicity, PBS/n-octanol; format: physicochemical; conditions: radiolabeled ligand
Experimental: Tubes were vortexed vigorously for 1 min and centrifuged for 5 min at 201×g for phase separation. The concentration of radioactivity in a defined volume of each layer was measured in a well-type gamma-counter.

T1 sequence (Q04609 whole entry): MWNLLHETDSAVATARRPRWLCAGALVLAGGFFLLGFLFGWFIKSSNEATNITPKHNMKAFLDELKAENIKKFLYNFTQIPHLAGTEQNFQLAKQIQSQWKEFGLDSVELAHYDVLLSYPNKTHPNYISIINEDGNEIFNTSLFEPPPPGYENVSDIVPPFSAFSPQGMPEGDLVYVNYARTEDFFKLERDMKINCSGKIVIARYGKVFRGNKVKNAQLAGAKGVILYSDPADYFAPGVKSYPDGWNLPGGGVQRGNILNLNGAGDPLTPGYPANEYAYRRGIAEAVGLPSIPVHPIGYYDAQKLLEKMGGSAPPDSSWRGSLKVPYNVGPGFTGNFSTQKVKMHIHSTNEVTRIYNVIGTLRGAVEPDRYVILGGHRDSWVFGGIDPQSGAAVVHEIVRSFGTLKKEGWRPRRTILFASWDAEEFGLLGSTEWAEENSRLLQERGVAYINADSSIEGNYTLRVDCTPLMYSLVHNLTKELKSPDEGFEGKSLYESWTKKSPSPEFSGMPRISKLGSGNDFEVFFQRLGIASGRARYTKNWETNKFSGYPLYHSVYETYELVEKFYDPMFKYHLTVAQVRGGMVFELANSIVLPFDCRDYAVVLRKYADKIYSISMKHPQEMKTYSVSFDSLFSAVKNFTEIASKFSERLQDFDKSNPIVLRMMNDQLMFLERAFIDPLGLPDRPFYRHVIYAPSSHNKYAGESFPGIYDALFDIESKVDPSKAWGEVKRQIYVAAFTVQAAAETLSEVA

Compound | Internalized fraction [1] | Membrane bound fraction [1] | Adrenals [2] | Blood [2] | Bone [2] | Bone marrow [2] | Duodenum [2] | Heart [2] | Kidney [2] | Liver [2] | Lung [2] | Muscle [2] | Pancreas [2] | Prostate [2] | Salivary glands [2] | Spleen [2] | Stomach [2] | Tumor+ LS174T-PSMA [2] | Tumor- LS174T [2] | Tumor/Blood ratio [2] | further results
C[Si](C)(CCC[N+](CCCS(=O)(=O)O)(CCCS(=O)(=O)O)CCCS(=O)(=O)O)O[Si-2]123(O[Si](C)(C)CCC[N+](CCCS(=O)(=O)O)(CCCS(=O)(=O)O)CCCS(=O)(=O)O)n4c5c6ccccc6c4N=C4c6cccc(OCCCOC(=O)NCCCCCC(=O)NCCCC[C@H](NC(=O)CCC(C(=O)O)N7CCN(CC(=O)O)CCN(CC(=O)O)CCN(CC(=O)O)CC7)C(=O)N[C@H](Cc7ccccc7)C(=O)NCCCCCC(=O)NCCCC[C@H](NC(=O)N[C@@H](CCC(=O)O)C(=O)O)C(=O)O)c6C(=[N+]41)N=c1c4ccccc4c(n12)=NC1=[N+]3C(=N5)c2ccccc21.[Na+].[Na+].[Na+].[Na+] (stereo partly shown) [N046] | 2.0 ± 0.39 | 0.8 ± 0.06 | 1.2 %ID/g | 0.7 %ID/g | 0.4 %ID/g | 0.2 %ID/g | 0.3 %ID/g | 0.3 %ID/g | 31.9 %ID/g | 0.8 %ID/g | 0.4 %ID/g | 0.2 %ID/g | 0.2 %ID/g | 0.9 %ID/g | 0.4 %ID/g | 1.1 %ID/g | 0.3 %ID/g | 4.3 %ID/g | 0.4 %ID/g | 14.9 | Tumor/Kidney ratio [2]: 0.2; Tumor/Liver ratio [2]: 6.1; Tumor/Muscle ratio [2]: 39.3; Tumor/Negative tumor ratio [2]: 10.8; Tumor/Prostate ratio [2]: 10.7; Tumor/Salivary gland ratio [2]: 12.5; Tumor/Spleen ratio [2]: 4.4 ± 1; LogD [3]: -2.4 ± 0.03
C[Si](C)(CCC[N+](CCCS(=O)(=O)O)(CCCS(=O)(=O)O)CCCS(=O)(=O)O)O[Si-2]123(O[Si](C)(C)CCC[N+](CCCS(=O)(=O)O)(CCCS(=O)(=O)O)CCCS(=O)(=O)O)n4c5c6ccccc6c4N=C4c6cccc(OCCCOC(=O)NCCCCCC(=O)NCCCC[C@H](NC(=O)[C@H](CCC(=O)O)NC(=O)CN7CCN(CC(=O)O)CCN(CC(=O)O)CCN(CC(=O)O)CC7)C(=O)N[C@H](Cc7ccccc7)C(=O)N[C@@H](CCC(=O)O)C(=O)N[C@@H](CCC(=O)O)C(=O)NCCCCCC(=O)NCCCC[C@H](NC(=O)N[C@@H](CCC(=O)O)C(=O)O)C(=O)O)c6C(=[N+]41)N=c1c4ccccc4c(n12)=NC1=[N+]3C(=N5)c2ccccc21.[Na+].[Na+].[Na+].[Na+] [N122] | 1.4 ± 0.20 | 0.6 ± 0.01 | 1.7 %ID/g | 0.6 %ID/g | 0.7 %ID/g | 0.4 %ID/g | 0.4 %ID/g | 0.5 %ID/g | 72.5 %ID/g | 1 ± 0.2 %ID/g | 1 ± 0.3 %ID/g | 0.2 %ID/g | 0.3 %ID/g | 0.4 %ID/g | 0.5 %ID/g | 1.6 %ID/g | 0.4 %ID/g | 7.6 %ID/g | 0.5 %ID/g | 13.9 | Tumor/Kidney ratio [2]: 0.2; Tumor/Liver ratio [2]: 8.1; Tumor/Muscle ratio [2]: 48.4; Tumor/Negative tumor ratio [2]: 17.8; Tumor/Prostate ratio [2]: 21.5; Tumor/Salivary gland ratio [2]: 18.6; Tumor/Spleen ratio [2]: 5.2; LogD [3]: -2.8 ± 0.06
C[Si](C)(CCC[N+](CCCS(=O)(=O)O)(CCCS(=O)(=O)O)CCCS(=O)(=O)O)O[Si-2]123(O[Si](C)(C)CCC[N+](CCCS(=O)(=O)O)(CCCS(=O)(=O)O)CCCS(=O)(=O)O)n4c5c6ccccc6c4N=C4c6cccc(OCCCOC(=O)NCCCCCC(=O)NCCCC[C@H](NC(=O)CCC(C(=O)O)N7CCN(CC(=O)O)CCN(CC(=O)O)CCN(CC(=O)O)CC7)C(=O)N[C@@H](CCC(=O)O)C(=O)N[C@@H](CCC(=O)O)C(=O)NCCCCCC(=O)NCCCC[C@H](NC(=O)N[C@@H](CCC(=O)O)C(=O)O)C(=O)O)c6C(=[N+]41)N=c1c4ccccc4c(n12)=NC1=[N+]3C(=N5)c2ccccc21.[Na+].[Na+].[Na+].[Na+] (stereo partly shown) [N144] | 2.5 ± 0.05 | 0.3 ± 0.03 | 1.3 %ID/g | 0.2 %ID/g | 0.5 %ID/g | 0.3 %ID/g | 0.3 %ID/g | 0.3 %ID/g | 70.3 %ID/g | 0.6 %ID/g | 0.4 %ID/g | 0.2 %ID/g | 0.2 %ID/g | 0.5 %ID/g | 0.4 %ID/g | 1.1 %ID/g | 0.3 %ID/g | 11.7 %ID/g | 0.5 %ID/g | 71.9 | Tumor/Kidney ratio [2]: 0.2; Tumor/Liver ratio [2]: 21.3; Tumor/Muscle ratio [2]: 110; Tumor/Negative tumor ratio [2]: 28.8; Tumor/Prostate ratio [2]: 32; Tumor/Salivary gland ratio [2]: 30.3; Tumor/Spleen ratio [2]: 12.3; LogD [3]: -2.4 ± 0.01
C[Si](C)(CCC[N+](CCCS(=O)(=O)O)(CCCS(=O)(=O)O)CCCS(=O)(=O)O)O[Si-2]123(O[Si](C)(C)CCC[N+](CCCS(=O)(=O)O)(CCCS(=O)(=O)O)CCCS(=O)(=O)O)n4c5c6ccccc6c4N=C4c6cccc(OCCCOC(=O)NCCCCCC(=O)NCCCC[C@H](NC(=O)CCOCCOCCOCCOCCNC(=O)CCC(C(=O)O)N7CCN(CC(=O)O)CCN(CC(=O)O)CCN(CC(=O)O)CC7)C(=O)N[C@H](Cc7ccccc7)C(=O)N[C@@H](CCC(=O)O)C(=O)N[C@@H](CCC(=O)O)C(=O)NCCCCCC(=O)NCCCC[C@H](NC(=O)N[C@@H](CCC(=O)O)C(=O)O)C(=O)O)c6C(=[N+]41)N=c1c4ccccc4c(n12)=NC1=[N+]3C(=N5)c2ccccc21.[Na+].[Na+].[Na+].[Na+] (stereo partly shown) [NJ26] | 1.8 ± 0.03 | 0.5 ± 0.05 | 1.5 %ID/g | 0.3 %ID/g | 0.2 %ID/g | 0.4 %ID/g | 0.3 %ID/g | 0.3 %ID/g | 59.9 %ID/g | 0.6 %ID/g | 0.5 %ID/g | 0.2 %ID/g | 0.2 %ID/g | 0.5 %ID/g | 0.4 %ID/g | 0.9 %ID/g | 0.3 %ID/g | 11.5 %ID/g | 0.4 %ID/g | 49.1 | Tumor/Kidney ratio [2]: 0.2; Tumor/Liver ratio [2]: 21.3; Tumor/Muscle ratio [2]: 116.4; Tumor/Negative tumor ratio [2]: 31.7; Tumor/Prostate ratio [2]: 29.4; Tumor/Salivary gland ratio [2]: 35; Tumor/Spleen ratio [2]: 14.2; LogD [3]: -2.4 ± 0.13
